The nature of data set [1]: 13C-1 spin-lattice relaxation time (T1) at 3 T MRI system. The note with it: 3 T MRsolution MRI system, solutions of DPBS with EDTA. Type of data set: physicochemical.
Data set [2] in a line: SABRE-SHEATH 13C hyperpolarization, single-scan 13C NMR. It counts as physicochemical. The following applies: 10 mM substrate, 45 mM DMSO, 7.8 mM Ir-IMes catalyst in methanol-d4; 55 s p-H2 bubbling at BT=−0.2 μT; ~50% p-H2; acquired after transfer to 1 T. From the text: Ultra-high-purity hydrogen gas (Airgas) was fed into a Para-Hydrogen (pH2) flow cryostat (Xeus technology LTD) and enriched to about 50% parahydrogen in the presence of a spin-exchange catalyst (Fe2O3) at liquid nitrogen temperature (77 K). The pH2 flow was directed via PTFE tubing to a mass flow controller (MFC, Sierra Instruments SmartTrak 100 series) set at 90 ssc/m and directed to a conventional 5 mm NMR tube (Norell) to allow bubbling through the sample. The entire pH2 line was pressurized to 96 psi.
At least once a day, the shield was degaussed using internal coils driven by a Variac. The solenoid has 41 mm diameter (40 mm core, 20 cm long windings with 220 turns AWG20 (0.9 mm) Cu wire and with 220Ω resistor in series. The solenoid coil was driven by commercial 1.5V batteries with a variable-resistance decade box in series to provide finer control of the internal magnetic field inside the shield. Typical values of the field within the shield were between […], with SABRE SHEATH experiments typically between 0.5 μT and 0.8 μT in the sample region. The values were monitored between SABRE experiments using a Lakeshore Cryotronics Gaussmeter (Model No. 475 DSP with HMMA-2512-VR Hall Probe.
NMR experiments were performed using a 1 T Magritek Spinsolve benchtop NMR spectrometer. […]

On to `O=C(O)CCC(=O)C(=O)O` [2-Oxopentanedioic-5-^12C-1-^13C acid], for which, in data set [1], the “T1 after flip angle correction (spin-lattice relaxation time)” value was 63.0 ± 0.835 s. Moreover, the “apparent T1 (spin-lattice relaxation time)” value in data set [1] (without flip angle correction) was found to be 32.1 ± 0.824 s.
Take `O=C(CC[12C](=O)[O-])[13C](=O)[O-].[Na+].[Na+]` [sodium [1-^13C] Ketoglutarate, sodium 2-Oxopentanedioate-5-^12C-1-^13C]: in data set [2], the “polarization P(13C)” value was around 0.24%.

Source of the values: patent US20250134897A1, “PREPARATION OF IS[…] KETO[…] METHODS OF HYPERPO[…] SIGNAL AMP[…] […] (SABRE)” (The United States of America,as represented by the …, priority 2022, published 2025).
